Assay results taken from PubChem BioAssay AID1963966 (Molecular Pharmacology Branch, DTP, NCI, 2024).

Tested on: 935938-334-R-J1-PDC spheroids with HUVEC/MSC, viability
Experiment: Anticancer human tumor 935938-334-R-J1-PDC patient-derived small intestine adenocarcinoma cell line growth inhibition [PI3K]
Settings: for IC50: curve of first compound; for viability, T/C: stronger effect = lower value
Method in brief: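 Targeted small molecules plus PI3K inhibitors, half-log dose series from Cmax (default top 10 microM), were applied to heterotypic spheroids of cancer cells with HUVEC and MSCs. Viability indicated growth inhibition.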

[1] = second compound 0.0316 µM, first compound 0.0316 µM
[2] = second compound 0.0316 µM, first compound 0.1 µM
[3] = second compound 0.0316 µM, first compound 0.316 µM
[4] = second compound 0.0316 µM, first compound 1 µM
[5] = second compound 0.0316 µM, first compound 3.16 µM
[6] = second compound 0.0316 µM, first compound 10 µM
[7] = second compound 0.1 µM, first compound 0.0316 µM
[8] = second compound 0.1 µM, first compound 0.1 µM
[9] = second compound 0.1 µM, first compound 0.316 µM
[10] = second compound 0.1 µM, first compound 1 µM
[11] = second compound 0.1 µM, first compound 3.16 µM
[12] = second compound 0.1 µM, first compound 10 µM
[13] = second compound 0.316 µM, first compound 0.0316 µM
[14] = second compound 0.316 µM, first compound 0.1 µM
[15] = second compound 0.316 µM, first compound 0.316 µM
[16] = second compound 0.316 µM, first compound 1 µM
[17] = second compound 0.316 µM, first compound 3.16 µM
[18] = second compound 0.316 µM, first compound 10 µM
[19] = second compound 1 µM, first compound 0.0316 µM
[20] = second compound 1 µM, first compound 0.1 µM
[21] = second compound 1 µM, first compound 0.316 µM
[22] = second compound 1 µM, first compound 1 µM
[23] = second compound 1 µM, first compound 3.16 µM
[24] = second compound 1 µM, first compound 10 µM
[25] = second compound 3.16 µM, first compound 0.0316 µM
[26] = second compound 3.16 µM, first compound 0.1 µM
[27] = second compound 3.16 µM, first compound 0.316 µM
[28] = second compound 3.16 µM, first compound 1 µM
[29] = second compound 3.16 µM, first compound 3.16 µM
[30] = second compound 3.16 µM, first compound 10 µM
[31] = second compound 10 µM, first compound 0.0316 µM
[32] = second compound 10 µM, first compound 0.1 µM
[33] = second compound 10 µM, first compound 0.316 µM
[34] = second compound 10 µM, first compound 1 µM
[35] = second compound 10 µM, first compound 3.16 µM
[36] = second compound 10 µM, first compound 10 µM
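Also: compound exposure lasted seven days before viability was read.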
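For viability, T/C in this document: percent of vehicle DMSO treated spheroid viability so 100% = untreated.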

SMILES: C#Cc1c(F)ccc2cc(O)cc(-c3ncc4c(N5CC6CCC(C5)N6)nc(OCC56CCCN5CC(F)C6)nc4c3F)c12 (stereo not drawn) + CC(Nc1ncnc2nc[nH]c12)c1cc2cccc(Cl)c2c(=O)n1-c1ccccc1
- IC50 (second compound 0.0316 µM): 4.52 µM
- IC50 (second compound 0.1 µM): 3.15 µM
- IC50 (second compound 0.316 µM): 3.98 µM
- IC50 (second compound 1 µM): 2.84 µM
- IC50 (second compound 3.16 µM): 2.23 µM
- IC50 (second compound 10 µM): 0.663 µM
- viability, T/C [1]: 83.8%
- viability, T/C [2]: 82.3%
- viability, T/C [3]: 83.2%
- viability, T/C [4]: 65.5%
- viability, T/C [5]: 56.8%
- viability, T/C [6]: 39%
- viability, T/C [7]: 99.4%
- viability, T/C [8]: 97%
- viability, T/C [9]: 91.9%
- viability, T/C [10]: 65.5%
- viability, T/C [11]: 53.3%
- viability, T/C [12]: 42.9%
- viability, T/C [13]: 88.8%
- viability, T/C [14]: 103%
- viability, T/C [15]: 89.3%
- viability, T/C [16]: 74.1%
- viability, T/C [17]: 54.3%
- viability, T/C [18]: 37.8%
- viability, T/C [19]: 76.7%
- viability, T/C [20]: 73.2%
- viability, T/C [21]: 60.4%
- viability, T/C [22]: 52.4%
- viability, T/C [23]: 57.4%
- viability, T/C [24]: 39.1%
- viability, T/C [25]: 82.8%
- viability, T/C [26]: 82.8%
- viability, T/C [27]: 110%
- viability, T/C [28]: 69.8%
- viability, T/C [29]: 44.5%
- viability, T/C [30]: 30.3%
- viability, T/C [31]: 70%
- viability, T/C [32]: 73.8%
- viability, T/C [33]: 60.4%
- viability, T/C [34]: 44.2%
- viability, T/C [35]: 36.2%
- viability, T/C [36]: 34%

SMILES: C=CC(=O)N1CCN(c2nc(=O)n(-c3c(C)ccnc3C(C)C)c3nc(-c4c(O)cccc4F)c(F)cc23)C(C)C1 (stereo not drawn) + CC(Nc1ncnc2nc[nH]c12)c1cc2cccc(Cl)c2c(=O)n1-c1ccccc1
- IC50 (second compound 0.0316 µM): > 10 µM
- IC50 (second compound 0.1 µM): > 10 µM
- IC50 (second compound 0.316 µM): > 10 µM
- IC50 (second compound 1 µM): > 10 µM
- IC50 (second compound 3.16 µM): > 10 µM
- IC50 (second compound 10 µM): > 10 µM
- viability, T/C [1]: 94.2%
- viability, T/C [2]: 103%
- viability, T/C [3]: 96.4%
- viability, T/C [4]: 84.3%
- viability, T/C [5]: 83.9%
- viability, T/C [6]: 95.8%
- viability, T/C [7]: 105%
- viability, T/C [8]: 123%
- viability, T/C [9]: 96.8%
- viability, T/C [10]: 120%
- viability, T/C [11]: 114%
- viability, T/C [12]: 108%
- viability, T/C [13]: 86%
- viability, T/C [14]: 88.7%
- viability, T/C [15]: 88.3%
- viability, T/C [16]: 95.7%
- viability, T/C [17]: 98.2%
- viability, T/C [18]: 87.6%
- viability, T/C [19]: 96.7%
- viability, T/C [20]: 106%
- viability, T/C [21]: 64%
- viability, T/C [22]: 94.8%
- viability, T/C [23]: 73.4%
- viability, T/C [24]: 68.9%
- viability, T/C [25]: 71.3%
- viability, T/C [26]: 84.3%
- viability, T/C [27]: 89.5%
- viability, T/C [28]: 85.1%
- viability, T/C [29]: 95%
- viability, T/C [30]: 72.2%
- viability, T/C [31]: 62.1%
- viability, T/C [32]: 99.5%
- viability, T/C [33]: 96.8%
- viability, T/C [34]: 84.5%
- viability, T/C [35]: 75.5%
- viability, T/C [36]: 68.8%

SMILES: CC(Cn1ccc(-c2ccc(C#N)c(Cl)c2)n1)NC(=O)c1cc(C(C)O)[nH]n1 (stereo not drawn) + CC(Nc1ncnc2nc[nH]c12)c1cc2cccc(Cl)c2c(=O)n1-c1ccccc1
- IC50 (second compound 0.0316 µM): > 10 µM
- IC50 (second compound 0.1 µM): > 10 µM
- IC50 (second compound 0.316 µM): > 10 µM
- IC50 (second compound 1 µM): > 10 µM
- IC50 (second compound 3.16 µM): > 10 µM
- IC50 (second compound 10 µM): > 10 µM
- viability, T/C [1]: 98.6%
- viability, T/C [2]: 93.4%
- viability, T/C [3]: 97.3%
- viability, T/C [4]: 111%
- viability, T/C [5]: 117%
- viability, T/C [6]: 108%
- viability, T/C [7]: 124%
- viability, T/C [8]: 85.2%
- viability, T/C [9]: 88.7%
- viability, T/C [10]: 99%
- viability, T/C [11]: 93.9%
- viability, T/C [12]: 113%
- viability, T/C [13]: 94.3%
- viability, T/C [14]: 116%
- viability, T/C [15]: 116%
- viability, T/C [16]: 98.2%
- viability, T/C [17]: 74.5%
- viability, T/C [18]: 102%
- viability, T/C [19]: 110%
- viability, T/C [20]: 105%
- viability, T/C [21]: 128%
- viability, T/C [22]: 102%
- viability, T/C [23]: 103%
- viability, T/C [24]: 96%
- viability, T/C [25]: 94.5%
- viability, T/C [26]: 77.3%
- viability, T/C [27]: 105%
- viability, T/C [28]: 91.2%
- viability, T/C [29]: 94.6%
- viability, T/C [30]: 104%
- viability, T/C [31]: 79.7%
- viability, T/C [32]: 69.8%
- viability, T/C [33]: 82%
- viability, T/C [34]: 68.4%
- viability, T/C [35]: 87.6%
- viability, T/C [36]: 97.8%

SMILES: CC1(C)CCC(Nc2ncc(C(F)(F)F)c(-c3c[nH]c4c(P(C)(C)=O)c(C#N)ccc34)n2)CN1 (stereo not drawn) + CC(Nc1ncnc2nc[nH]c12)c1cc2cccc(Cl)c2c(=O)n1-c1ccccc1
- IC50 (second compound 0.0316 µM): < 0.0316 µM
- IC50 (second compound 0.1 µM): < 0.0316 µM
- IC50 (second compound 0.316 µM): < 0.0316 µM
- IC50 (second compound 1 µM): < 0.0316 µM
- IC50 (second compound 3.16 µM): < 0.0316 µM
- IC50 (second compound 10 µM): < 0.0316 µM
- viability, T/C [1]: 43%
- viability, T/C [2]: 46.4%
- viability, T/C [3]: 31.9%
- viability, T/C [4]: 35.3%
- viability, T/C [5]: 34.8%
- viability, T/C [6]: 5.59%
- viability, T/C [7]: 42.3%
- viability, T/C [8]: 36.5%
- viability, T/C [9]: 32.7%
- viability, T/C [10]: 36.9%
- viability, T/C [11]: 35.1%
- viability, T/C [12]: 6.35%
- viability, T/C [13]: 38%
- viability, T/C [14]: 37.1%
- viability, T/C [15]: 41.2%
- viability, T/C [16]: 36.5%
- viability, T/C [17]: 26.8%
- viability, T/C [18]: 6.84%
- viability, T/C [19]: 42%
- viability, T/C [20]: 35.5%
- viability, T/C [21]: 41%
- viability, T/C [22]: 34.8%
- viability, T/C [23]: 33.2%
- viability, T/C [24]: 7.47%
- viability, T/C [25]: 30.8%
- viability, T/C [26]: 38.6%
- viability, T/C [27]: 41.8%
- viability, T/C [28]: 36.2%
- viability, T/C [29]: 32.6%
- viability, T/C [30]: 5.17%
- viability, T/C [31]: 37.8%
- viability, T/C [32]: 37%
- viability, T/C [33]: 35.9%
- viability, T/C [34]: 35.1%
- viability, T/C [35]: 28.5%
- viability, T/C [36]: 5.58%
